For six compounds, IC50 results are on record in patent US9340590B2 (priority 2011, dated 2016).

Positions of bridges follow the written chain, without caps; N, C: chain ends. Residues, ends and D or L forms follow the SMILES beside them. Where only a bound is given, the exact number is not on record here.

Holding throughout (assay): cell-based
Assay [1] deals with hNav1.7 (Homo sapiens, UniProt Q15858). It counts as cell-based. The note with it: IonWorks Quattro, use-dependent block, hNav1.7; read-out: IWQ Use Nav1.7. For orientation: In patch-clamp work, channel activity is measured electrically.
Assay [2] has as its target hNav1.5 (Homo sapiens, UniProt Q14524). The note with it: IonWorks Quattro, use-dependent block, hNav1.5; read-out: IWQ Use Nav1.5.
In assay [3] the target is hNav1.3 (Homo sapiens, UniProt Q9NY46). The note with it: IonWorks Quattro, use-dependent block, hNav1.3; read-out: IWQ Use Nav1.3.

hNav1.5, sequence (Q14524 whole entry, looked up): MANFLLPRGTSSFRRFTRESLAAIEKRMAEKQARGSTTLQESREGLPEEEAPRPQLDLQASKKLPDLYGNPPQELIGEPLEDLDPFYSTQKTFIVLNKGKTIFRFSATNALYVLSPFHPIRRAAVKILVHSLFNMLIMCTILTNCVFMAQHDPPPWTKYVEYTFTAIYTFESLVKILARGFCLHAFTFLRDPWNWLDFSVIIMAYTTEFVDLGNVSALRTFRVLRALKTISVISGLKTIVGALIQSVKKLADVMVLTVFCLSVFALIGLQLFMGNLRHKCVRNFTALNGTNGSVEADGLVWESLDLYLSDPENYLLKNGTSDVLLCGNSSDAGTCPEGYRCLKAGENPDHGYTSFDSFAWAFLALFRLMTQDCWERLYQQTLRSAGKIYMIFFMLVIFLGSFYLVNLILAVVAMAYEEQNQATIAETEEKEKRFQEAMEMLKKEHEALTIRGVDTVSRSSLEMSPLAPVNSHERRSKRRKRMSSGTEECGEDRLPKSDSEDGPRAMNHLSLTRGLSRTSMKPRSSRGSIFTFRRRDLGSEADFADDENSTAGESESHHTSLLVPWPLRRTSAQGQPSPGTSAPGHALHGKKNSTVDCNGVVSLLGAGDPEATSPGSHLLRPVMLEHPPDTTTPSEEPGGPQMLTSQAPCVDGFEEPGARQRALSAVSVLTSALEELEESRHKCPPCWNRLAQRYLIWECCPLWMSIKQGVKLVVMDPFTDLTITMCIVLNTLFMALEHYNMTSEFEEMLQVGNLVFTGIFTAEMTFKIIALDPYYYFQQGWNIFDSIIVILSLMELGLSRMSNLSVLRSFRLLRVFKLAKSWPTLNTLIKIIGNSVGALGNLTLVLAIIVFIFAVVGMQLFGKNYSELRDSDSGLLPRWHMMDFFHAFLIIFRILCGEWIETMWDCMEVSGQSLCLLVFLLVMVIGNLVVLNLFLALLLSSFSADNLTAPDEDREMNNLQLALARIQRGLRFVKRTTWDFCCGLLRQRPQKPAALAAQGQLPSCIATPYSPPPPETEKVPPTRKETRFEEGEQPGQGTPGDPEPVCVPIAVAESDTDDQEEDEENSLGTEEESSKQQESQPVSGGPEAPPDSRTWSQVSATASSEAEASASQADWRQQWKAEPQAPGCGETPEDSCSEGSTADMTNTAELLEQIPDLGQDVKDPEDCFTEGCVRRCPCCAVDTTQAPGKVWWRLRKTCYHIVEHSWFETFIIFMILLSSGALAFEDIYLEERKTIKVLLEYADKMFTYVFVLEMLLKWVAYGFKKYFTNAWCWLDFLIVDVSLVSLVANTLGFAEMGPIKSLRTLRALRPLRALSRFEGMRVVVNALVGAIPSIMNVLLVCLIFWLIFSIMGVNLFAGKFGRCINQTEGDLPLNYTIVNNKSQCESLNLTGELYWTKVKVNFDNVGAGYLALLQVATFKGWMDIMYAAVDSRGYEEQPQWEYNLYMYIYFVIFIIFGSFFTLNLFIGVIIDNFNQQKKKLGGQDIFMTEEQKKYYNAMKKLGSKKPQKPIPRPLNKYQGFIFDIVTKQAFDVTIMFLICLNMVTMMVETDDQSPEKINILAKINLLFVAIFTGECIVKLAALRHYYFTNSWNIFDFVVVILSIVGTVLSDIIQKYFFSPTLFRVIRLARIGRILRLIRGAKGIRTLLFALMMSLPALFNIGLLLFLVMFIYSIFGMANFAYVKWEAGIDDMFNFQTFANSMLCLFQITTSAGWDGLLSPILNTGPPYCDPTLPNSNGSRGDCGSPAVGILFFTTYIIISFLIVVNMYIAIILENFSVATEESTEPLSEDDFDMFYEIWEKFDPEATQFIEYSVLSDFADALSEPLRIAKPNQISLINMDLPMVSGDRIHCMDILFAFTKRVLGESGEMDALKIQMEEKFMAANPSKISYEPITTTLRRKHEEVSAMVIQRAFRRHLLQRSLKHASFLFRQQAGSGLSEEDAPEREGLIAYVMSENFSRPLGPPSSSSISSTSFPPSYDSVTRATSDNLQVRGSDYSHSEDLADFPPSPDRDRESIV
hNav1.7, sequence (Q15858 whole entry, looked up): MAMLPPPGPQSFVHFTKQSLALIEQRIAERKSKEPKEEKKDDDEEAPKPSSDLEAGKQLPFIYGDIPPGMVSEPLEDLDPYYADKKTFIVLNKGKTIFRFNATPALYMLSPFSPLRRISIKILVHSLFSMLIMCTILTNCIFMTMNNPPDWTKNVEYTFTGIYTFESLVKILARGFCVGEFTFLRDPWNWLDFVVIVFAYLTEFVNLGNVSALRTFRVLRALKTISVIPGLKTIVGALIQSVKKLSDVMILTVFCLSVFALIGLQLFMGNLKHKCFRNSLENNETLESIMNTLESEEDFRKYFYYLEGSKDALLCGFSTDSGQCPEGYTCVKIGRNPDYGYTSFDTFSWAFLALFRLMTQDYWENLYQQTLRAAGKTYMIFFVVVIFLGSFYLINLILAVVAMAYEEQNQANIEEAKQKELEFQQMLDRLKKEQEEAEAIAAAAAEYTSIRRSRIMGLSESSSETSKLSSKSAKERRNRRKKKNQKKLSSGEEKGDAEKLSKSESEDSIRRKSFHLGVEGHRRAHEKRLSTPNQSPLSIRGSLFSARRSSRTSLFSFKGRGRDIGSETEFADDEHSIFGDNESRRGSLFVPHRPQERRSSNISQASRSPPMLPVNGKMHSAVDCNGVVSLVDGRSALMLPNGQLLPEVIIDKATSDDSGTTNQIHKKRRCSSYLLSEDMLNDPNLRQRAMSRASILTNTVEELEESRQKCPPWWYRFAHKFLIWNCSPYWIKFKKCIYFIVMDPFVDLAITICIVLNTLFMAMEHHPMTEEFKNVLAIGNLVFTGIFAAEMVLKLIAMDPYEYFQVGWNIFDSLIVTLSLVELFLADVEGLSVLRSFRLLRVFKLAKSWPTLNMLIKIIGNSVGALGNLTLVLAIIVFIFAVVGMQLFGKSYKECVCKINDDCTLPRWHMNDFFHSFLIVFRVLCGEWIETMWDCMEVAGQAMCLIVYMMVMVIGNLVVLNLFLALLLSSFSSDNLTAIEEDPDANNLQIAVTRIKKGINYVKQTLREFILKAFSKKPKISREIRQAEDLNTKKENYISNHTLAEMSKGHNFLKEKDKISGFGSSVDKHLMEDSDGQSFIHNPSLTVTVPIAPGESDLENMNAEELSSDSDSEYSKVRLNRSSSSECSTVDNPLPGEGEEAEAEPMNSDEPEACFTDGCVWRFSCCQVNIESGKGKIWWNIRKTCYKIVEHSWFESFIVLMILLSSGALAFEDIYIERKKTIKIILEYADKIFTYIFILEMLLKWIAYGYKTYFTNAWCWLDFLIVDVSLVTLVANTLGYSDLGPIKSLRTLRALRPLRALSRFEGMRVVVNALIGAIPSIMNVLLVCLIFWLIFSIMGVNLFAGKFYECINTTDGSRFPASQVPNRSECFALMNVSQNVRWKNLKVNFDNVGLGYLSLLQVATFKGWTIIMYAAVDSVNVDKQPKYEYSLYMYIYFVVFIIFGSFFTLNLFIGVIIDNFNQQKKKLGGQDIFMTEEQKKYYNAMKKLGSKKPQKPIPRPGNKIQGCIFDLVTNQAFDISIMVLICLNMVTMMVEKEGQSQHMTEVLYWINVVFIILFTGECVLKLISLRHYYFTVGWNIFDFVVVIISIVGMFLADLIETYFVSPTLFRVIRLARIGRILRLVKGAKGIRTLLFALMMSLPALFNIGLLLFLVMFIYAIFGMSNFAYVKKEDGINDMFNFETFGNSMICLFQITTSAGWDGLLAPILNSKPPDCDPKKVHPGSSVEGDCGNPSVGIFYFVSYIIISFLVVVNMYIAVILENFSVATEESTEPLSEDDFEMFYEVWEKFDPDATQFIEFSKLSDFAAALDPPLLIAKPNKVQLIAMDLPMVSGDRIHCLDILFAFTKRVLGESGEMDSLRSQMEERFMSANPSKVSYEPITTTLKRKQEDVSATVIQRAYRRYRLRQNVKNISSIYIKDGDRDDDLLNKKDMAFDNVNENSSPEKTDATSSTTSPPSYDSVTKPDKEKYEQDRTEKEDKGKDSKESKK

Take `CC[C@H](C)[C@@H]1NC(=O)[C@@H]2CSSC[C@@H]3NC(=O)[C@H](C(C)C)NC(=O)[C@H](CC(C)C)NC(=O)[C@H](CC(N)=O)NC(=O)[C@@H]4CCCN4C(=O)[C@H](CCCNC(=N)N)NC(=O)[C@H](CSSC[C@H](NC(=O)[C@@H](N)CC(=O)O)C(=O)N[C@@H](CC(C)C)C(=O)NCC(=O)N[C@@H](C)C(=O)N[C@@H](Cc4ccccc4)C(=O)N[C@@H](CCCNC(=N)N)C(=O)N[C@@H](CCCCN)C(=O)N2)NC(=O)[C@H](CSSC[C@@H](C(=O)N[C@@H](CCCCN)C(=O)N[C@@H](Cc2ccc(O)cc2)C(=O)N[C@H](C(=O)N[C@@H](Cc2ccccc2)C(=O)O)C(C)C)NC(=O)[C@H](Cc2c[nH]c4ccccc24)NC(=O)[C@H](CCCNC(=N)N)NC(=O)[C@H](Cc2c[nH]cn2)NC(=O)[C@H]([C@@H](C)O)NC(=O)[C@H](CCCNC(=N)N)NC(=O)[C@H](CO)NC3=O)NC(=O)[C@H](CCCCN)NC(=O)[C@H](CC(=O)O)NC(=O)[C@H](CC(N)=O)NC(=O)[C@H](CC(=O)O)NC(=O)[C@@H]2CCCN2C1=O` [compound 823] (H-DCLGAFRKCIPDNDKCCRPNLVCSRTHRWCKYVF-OH; disulfide 2-17, 9-23, 16-30): the IC50 in assay [1] was 3.4 µM; in assay [2] it was > 5 µM; in assay [3], 3.4 µM.
Regarding `CC[C@H](C)[C@@H]1NC(=O)[C@@H]2CSSC[C@@H]3NC(=O)[C@H](C(C)C)NC(=O)[C@H](CC(C)C)NC(=O)[C@H](CC(N)=O)NC(=O)[C@@H]4CCCN4C(=O)[C@H](CCCNC(=N)N)NC(=O)[C@H](CSSC[C@H](NC(=O)[C@@H](N)CC(=O)O)C(=O)N[C@@H](CC(C)C)C(=O)NCC(=O)N[C@@H](C)C(=O)N[C@@H](Cc4ccccc4)C(=O)N[C@@H](CCCNC(=N)N)C(=O)N[C@@H](CCCCN)C(=O)N2)NC(=O)[C@H](CSSC[C@@H](C(=O)N[C@@H](CCCCN)C(=O)N[C@@H](Cc2ccc(O)cc2)C(=O)N[C@H](C(=O)N[C@@H](Cc2ccccc2)C(=O)O)C(C)C)NC(=O)[C@H](Cc2c[nH]c4ccccc24)NC(=O)[C@H](C)NC(=O)[C@H](Cc2c[nH]cn2)NC(=O)[C@H]([C@@H](C)O)NC(=O)[C@H](CCCNC(=N)N)NC(=O)[C@H](CO)NC3=O)NC(=O)[C@H](CCCCN)NC(=O)[C@H](CC(=O)O)NC(=O)[C@H](CC(N)=O)NC(=O)[C@H](CC(=O)O)NC(=O)[C@@H]2CCCN2C1=O` [compound 824] (H-DCLGAFRKCIPDNDKCCRPNLVCSRTHAWCKYVF-OH; disulfide 2-17, 9-23, 16-30), the IC50 in assay [1], in assay [2] and in assay [3] was > 5 µM in each case.
With `CC[C@H](C)[C@@H]1NC(=O)[C@@H]2CSSC[C@@H]3NC(=O)[C@H](C(C)C)NC(=O)[C@H](CC(C)C)NC(=O)[C@H](CC(N)=O)NC(=O)[C@@H]4CCCN4C(=O)[C@H](CCCNC(=N)N)NC(=O)[C@H](CSSC[C@H](NC(=O)[C@@H](N)CC(=O)O)C(=O)N[C@@H](CC(C)C)C(=O)NCC(=O)N[C@@H](C)C(=O)N[C@@H](Cc4ccccc4)C(=O)N[C@@H](CCCNC(=N)N)C(=O)N[C@@H](CCCCN)C(=O)N2)NC(=O)[C@H](CSSC[C@@H](C(=O)N[C@@H](CCCCN)C(=O)N[C@@H](Cc2ccc(O)cc2)C(=O)N[C@H](C(=O)N[C@@H](Cc2ccccc2)C(=O)O)C(C)C)NC(=O)[C@H](Cc2c[nH]c4ccccc24)NC(=O)[C@H](CC(=O)O)NC(=O)[C@H](Cc2c[nH]cn2)NC(=O)[C@H]([C@@H](C)O)NC(=O)[C@H](CCCNC(=N)N)NC(=O)[C@H](CO)NC3=O)NC(=O)[C@H](CCCCN)NC(=O)[C@H](CC(=O)O)NC(=O)[C@H](CC(N)=O)NC(=O)[C@H](CC(=O)O)NC(=O)[C@@H]2CCCN2C1=O` [compound 825] (H-DCLGAFRKCIPDNDKCCRPNLVCSRTHDWCKYVF-OH; disulfide 2-17, 9-23, 16-30), the IC50 in assay [1], in assay [2] and in assay [3] was > 5 µM each time.
For the compound `CC[C@H](C)[C@@H]1NC(=O)[C@@H]2CSSC[C@@H]3NC(=O)[C@H](C(C)C)NC(=O)[C@H](CC(C)C)NC(=O)[C@H](CC(N)=O)NC(=O)[C@@H]4CCCN4C(=O)[C@H](CCCNC(=N)N)NC(=O)[C@H](CSSC[C@H](NC(=O)[C@@H](N)CC(=O)O)C(=O)N[C@@H](CC(C)C)C(=O)NCC(=O)N[C@@H](C)C(=O)N[C@@H](Cc4ccccc4)C(=O)N[C@@H](CCCNC(=N)N)C(=O)N[C@@H](CCCCN)C(=O)N2)NC(=O)[C@H](CSSC[C@@H](C(=O)N[C@@H](CCCCN)C(=O)N[C@@H](Cc2ccc(O)cc2)C(=O)N[C@H](C(=O)N[C@@H](Cc2ccccc2)C(=O)O)C(C)C)NC(=O)[C@H](Cc2c[nH]c4ccccc24)NC(=O)[C@H](CCC(=O)O)NC(=O)[C@H](Cc2c[nH]cn2)NC(=O)[C@H]([C@@H](C)O)NC(=O)[C@H](CCCNC(=N)N)NC(=O)[C@H](CO)NC3=O)NC(=O)[C@H](CCCCN)NC(=O)[C@H](CC(=O)O)NC(=O)[C@H](CC(N)=O)NC(=O)[C@H](CC(=O)O)NC(=O)[C@@H]2CCCN2C1=O` [compound 826] (H-DCLGAFRKCIPDNDKCCRPNLVCSRTHEWCKYVF-OH; disulfide 2-17, 9-23, 16-30), the IC50 in assay [1] is > 5 µM; in assay [2] it was > 5 µM; in assay [3], 1.8 µM.
With `CC[C@H](C)[C@@H]1NC(=O)[C@@H]2CSSC[C@@H]3NC(=O)[C@H](C(C)C)NC(=O)[C@H](CC(C)C)NC(=O)[C@H](CC(N)=O)NC(=O)[C@@H]4CCCN4C(=O)[C@H](CCCNC(=N)N)NC(=O)[C@H](CSSC[C@H](NC(=O)[C@@H](N)CC(=O)O)C(=O)N[C@@H](CC(C)C)C(=O)NCC(=O)N[C@@H](C)C(=O)N[C@@H](Cc4ccccc4)C(=O)N[C@@H](CCCNC(=N)N)C(=O)N[C@@H](CCCCN)C(=O)N2)NC(=O)[C@H](CSSC[C@@H](C(=O)N[C@@H](CCCCN)C(=O)N[C@@H](Cc2ccc(O)cc2)C(=O)N[C@H](C(=O)N[C@@H](Cc2ccccc2)C(=O)O)C(C)C)NC(=O)[C@H](Cc2c[nH]c4ccccc24)NC(=O)CNC(=O)[C@H](Cc2c[nH]cn2)NC(=O)[C@H]([C@@H](C)O)NC(=O)[C@H](CCCNC(=N)N)NC(=O)[C@H](CO)NC3=O)NC(=O)[C@H](CCCCN)NC(=O)[C@H](CC(=O)O)NC(=O)[C@H](CC(N)=O)NC(=O)[C@H](CC(=O)O)NC(=O)[C@@H]2CCCN2C1=O` [compound 827] (H-DCLGAFRKCIPDNDKCCRPNLVCSRTHGWCKYVF-OH; disulfide 2-17, 9-23, 16-30), the IC50 in assay [1], in assay [2] and in assay [3] was > 5 µM throughout.
As to `CC[C@H](C)[C@@H]1NC(=O)[C@@H]2CSSC[C@@H]3NC(=O)[C@H](C(C)C)NC(=O)[C@H](CC(C)C)NC(=O)[C@H](CC(N)=O)NC(=O)[C@@H]4CCCN4C(=O)[C@H](CCCNC(=N)N)NC(=O)[C@H](CSSC[C@H](NC(=O)[C@@H](N)CC(=O)O)C(=O)N[C@@H](CC(C)C)C(=O)NCC(=O)N[C@@H](C)C(=O)N[C@@H](Cc4ccccc4)C(=O)N[C@@H](CCCNC(=N)N)C(=O)N[C@@H](CCCCN)C(=O)N2)NC(=O)[C@H](CSSC[C@@H](C(=O)N[C@@H](CCCCN)C(=O)N[C@@H](Cc2ccc(O)cc2)C(=O)N[C@H](C(=O)N[C@@H](Cc2ccccc2)C(=O)O)C(C)C)NC(=O)[C@H](Cc2c[nH]c4ccccc24)NC(=O)[C@H](Cc2c[nH]cn2)NC(=O)[C@H](Cc2c[nH]cn2)NC(=O)[C@H]([C@@H](C)O)NC(=O)[C@H](CCCNC(=N)N)NC(=O)[C@H](CO)NC3=O)NC(=O)[C@H](CCCCN)NC(=O)[C@H](CC(=O)O)NC(=O)[C@H](CC(N)=O)NC(=O)[C@H](CC(=O)O)NC(=O)[C@@H]2CCCN2C1=O` [compound 828] (H-DCLGAFRKCIPDNDKCCRPNLVCSRTHHWCKYVF-OH; disulfide 2-17, 9-23, 16-30), the IC50 in assay [1], in assay [2] and in assay [3] was > 5 µM in each case.
